Measured values taken from BindingDB's records for doi:10.1016/j.bmcl.2005.11.096 (Glaxosmithkline, 2006).

Assay: Agonist activity as induced proliferation in Ba/F3-hTpoR murine lymphocyte expressing human TPOR

Row | Compound | EC50 [nM]
1 | CC(C)(C)c1ccc(-c2cccc(-c3nc4ccc(CC(C(=O)O)C(=O)O)cc4[nH]3)n2)cc1 [2-((2-(6-(4-tert-butylphenyl)pyridin-2-yl)-1H-benzo[d]imidazol-5-yl)methyl)malonic acid] | 10000
2 | CC(=Cc1ccc2nc(-c3cccc(-c4ccc(C(C)(C)C)cc4)n3)[nH]c2c1)C(=O)O [3-(2-(6-(4-tert-butylphenyl)pyridin-2-yl)-1H-benzo[d]imidazol-5-yl)-2-methylacrylic acid] | 4500
3 | Cc1ccc(-c2csc(-c3nc4ccc(C=C5SC(S)=NC5=O)cc4[nH]3)c2)cc1C [5-((2-(4-(3,4-dimethylphenyl)thiophen-2-yl)-1H-benzo[d]imidazol-5-yl)methylene)-2-thioxothiazolidin-4-one] | 780
4 | Cc1ccc(-c2ccc(-c3nc4ccc(C=C5SC(S)=NC5=O)cc4[nH]3)s2)cc1C [5-((2-(5-(3,4-dimethylphenyl)thiophen-2-yl)-1H-benzo[d]imidazol-5-yl)methylene)-2-thioxothiazolidin-4-one] | 1750
5 | CC(C)(C)c1ccc(-c2ccc(-c3nc4ccc(C=C5SC(=S)NC5=O)cc4[nH]3)o2)cc1 [5-((2-(5-(4-tert-butylphenyl)furan-2-yl)-1H-benzo[d]imidazol-5-yl)methylene)-2-thioxothiazolidin-4-one] | 720
6 | Cc1ccc(-c2cccc(-c3nc4ccc(C=C5SC(S)=NC5=O)cc4[nH]3)n2)cc1C [5-((2-(6-(3,4-dimethylphenyl)pyridin-2-yl)-1H-benzo[d]imidazol-5-yl)methylene)-2-thioxothiazolidin-4-one] | 1600
7 | CC(C)(C)c1ccc(-c2cccc(-c3nc4ccc(C=C5SC(S)=NC5=O)cc4[nH]3)n2)cc1 [5-((2-(6-(4-tert-butylphenyl)pyridin-2-yl)-1H-benzo[d]imidazol-5-yl)methylene)-2-thioxothiazolidin-4-one] | 2000
8 | CC(C)(C)c1ccc(-c2cccc(-c3nc4ccc(C=C5SC(=S)NC5=O)cc4[nH]3)c2)cc1 [5-[1-[2-(4'-tert-Butyl-biphenyl-3-yl)-1H-benzoimidazol-5-yl]-methylidene]-2-thioxo-thiazolidin-4-one] | 900
